Source: US20260250260A1, “POLYMORPH OF 7,8-DIHYDROXYFLAVONE, AND PREPARATION METHOD THEREFOR” (HUIANKAI (XIAMEN) PHARMACEUTICAL TECHNOLOGY CO., LTD., priority 2022, published 2026)
In brackets after ≈: the same amount, converted by molar mass. Values belong to the compound of their own block, whether it stands above or below them.

Assays:
Assay type in all cases: physicochemical
[1] = Dynamic vapor sorption analysis (DVS); conditions: range of 0%-95% relative humidity; mass gain relative to initial mass
Experimental: Dynamic vapor sorption and desorption analysis was measured using DVS Intrinsic (SMS, UK). The test was performed in gradient mode with a humidity change of 50%-95%-0%-50%, with a change of 10% per humidity gradient in the range of 0% to 90%. The gradient endpoint was determined by dm/dt; the gradient endpoint lies where the dm/dt was less than 0.002% and maintained for 10 minutes. After the test was completed, the samples were analyzed by XRPD to confirm whether the solid morphology had changed.

[2] = Stability of different 7,8-dihydroxyflavone crystal forms (XRPD characterization); conditions: for crystal form stability (general statement): performance embodiment, no conditions stated
Experimental: The stability of different 7,8-dihydroxyflavonoid crystal forms was studied under high temperature (60° C.), high humidity (25° C./92.5% RH), illumination (25° C./4500 Lux), and acceleration (40° C./75% RH) conditions, and samples were taken for XRPD characterization on day 7 and day 15, respectively.

[3] = Dynamic solubility in biological medium (FaSSIF, FeSSIF, FaSSGF) and water
Experimental: The 20 mg of 7,8-dihydroxyflavones in different crystal forms were weighed out separately and added into 4.0 mL of biological medium or water, and shaken at a constant temperature of 37° C. for 24 h. Samples were taken at 0.5 h, 2 h and 24 h, respectively, and the sampled solutions were filtered through 0.22 μm aquo-system filter membranes. Signal peak areas of the solutions were measured by HPLC, and finally, concentrations of the compounds in the solutions were calculated based on the peak areas, HPLC standard curves of the raw materials, and the dilution times. In addition, the supernatant at 24 h was taken to test pH, and the residual solid was subjected to the XRPD test. [table]

[4] = Crystal form conversion of comparative crystal forms on drying, at room temperature or on heating
[5] = FaSSGF pH 1.6, residual solid after 24 h at 37° C.
[6] = FaSSGF pH 1.6, supernatant at 24 h
[7] = FaSSIF pH 6.5, residual solid after 24 h at 37° C.
[8] = FaSSIF pH 6.5, supernatant at 24 h
[9] = FeSSIF pH 5.0, residual solid after 24 h at 37° C.
[10] = FeSSIF pH 5.0, supernatant at 24 h
[11] = Water, residual solid after 24 h at 37° C.

Structure (SMILES): O=c1cc(-c2ccccc2)oc2c(O)c(O)ccc12 [Crystal form P, 7,8-dihydroxyflavone]
- weight gain in the dynamic vapor sorption plot [1]: less than 0.1%
- Result on day 7 (XRPD) ([2]; Acceleration 40° C./75% RH): No change
- Result on day 15 (XRPD) ([2]; Acceleration 40° C./75% RH): No change
- Result on day 7 (XRPD) ([2]; High humidity 25° C./92.5% RH): No change
- Result on day 15 (XRPD) ([2]; High humidity 25° C./92.5% RH): No change
- Result on day 7 (XRPD) ([2]; High temperature 60° C.): No change
- Result on day 15 (XRPD) ([2]; High temperature 60° C.): No change
- Result on day 7 (XRPD) ([2]; Illumination 25° C./4500 Lux): No change
- Result on day 15 (XRPD) ([2]; Illumination 25° C./4500 Lux): No change
- crystal form stability (general statement) [2]: stable and does not suffer from crystal transformation
- Solubility 0.5 h ([3]; FaSSGF pH 1.6, 37° C.): 8.6 µg/mL (≈ 33.8 µM)
- Solubility 2 h ([3]; FaSSGF pH 1.6, 37° C.): 8.6 µg/mL (≈ 33.8 µM)
- Solubility 24 h ([3]; FaSSGF pH 1.6, 37° C.): 5.6 µg/mL (≈ 22 µM)
- Residual solid XRPD [3, 5]: Crystal form P
- Final pH [3, 6]: 1.6
- Solubility 0.5 h ([3]; FaSSIF pH 6.5, 37° C.): 24.3 µg/mL (≈ 95.6 µM)
- Solubility 2 h ([3]; FaSSIF pH 6.5, 37° C.): 25.9 µg/mL (≈ 102 µM)
- Solubility 24 h ([3]; FaSSIF pH 6.5, 37° C.): 20.5 µg/mL (≈ 80.6 µM)
- Residual solid XRPD [3, 7]: Crystal form P
- Final pH [3, 8]: 6.4
- Solubility 0.5 h ([3]; FeSSIF pH 5.0, 37° C.): 74.5 µg/mL (≈ 293 µM)
- Solubility 2 h ([3]; FeSSIF pH 5.0, 37° C.): 74.3 µg/mL (≈ 292 µM)
- Solubility 24 h ([3]; FeSSIF pH 5.0, 37° C.): 71.2 µg/mL (≈ 280 µM)
- Residual solid XRPD [3, 9]: Crystal form P
- Final pH [3, 10]: 5.0
- Solubility 0.5 h ([3]; Water, 37° C.): 11.2 µg/mL (≈ 44.1 µM)
- Solubility 2 h ([3]; Water, 37° C.): 10.6 µg/mL (≈ 41.7 µM)
- Solubility 24 h ([3]; Water, 37° C.): 10.6 µg/mL (≈ 41.7 µM)
- Residual solid XRPD [3, 11]: Crystal form P
- Final pH ([3]; Water, supernatant at 24 h): 4.6

Structure (SMILES): O=c1cc(-c2ccccc2)oc2c(O)c(O)ccc12 [crystal form A, 7,8-dihydroxyflavone]
- crystal form conversion ([4]; heated to 130° C.): convert to mixed crystals containing the crystal form F
- crystal form conversion ([4]; heated to 160° C.): convert to mixed crystals containing the crystal form F and the crystal form J
- crystal form conversion ([4]; under sufficient drying): convert to the crystal form N

Structure (SMILES): O=c1cc(-c2ccccc2)oc2c(O)c(O)ccc12 [crystal form G, 7,8-dihydroxyflavone]
- crystal form conversion ([4]; heated to 140° C.): convert to the crystal form T which has a small amount of crystal form J

Structure (SMILES): O=c1cc(-c2ccccc2)oc2c(O)c(O)ccc12 [crystal form K, 7,8-dihydroxyflavone]
- crystal form conversion ([4]; heated to 150° C. and then cooled to room temperature): convert to mixed crystals of the crystal form F and the crystal form J

Structure (SMILES): O=c1cc(-c2ccccc2)oc2c(O)c(O)ccc12 [crystal form M, 7,8-dihydroxyflavone]
- crystal form conversion ([4]; at room temperature): convert to the crystal form C

Structure (SMILES): O=c1cc(-c2ccccc2)oc2c(O)c(O)ccc12 [crystal form O, 7,8-dihydroxyflavone]
- crystal form conversion ([4]; at room temperature): convert to the crystal form C

Structure (SMILES): O=c1cc(-c2ccccc2)oc2c(O)c(O)ccc12 [crystal form Q, 7,8-dihydroxyflavone]
- crystal form conversion ([4]; at room temperature): convert to the crystal form C

Structure (SMILES): O=c1cc(-c2ccccc2)oc2c(O)c(O)ccc12 [crystal form R, 7,8-dihydroxyflavone]
- crystal form conversion ([4]; at room temperature): cannot exist at room temperature for a long period

Structure (SMILES): O=c1cc(-c2ccccc2)oc2c(O)c(O)ccc12 [crystal form T, 7,8-dihydroxyflavone]
- crystal form conversion ([4]; at room temperature): cannot exist at room temperature for a long period

More lines, main results first:

- weight gain in the dynamic vapor sorption plot [1]: less than 0.1%
- Result on day 7 (XRPD) ([2]; Acceleration 40° C./75% RH): No change
- Result on day 15 (XRPD) ([2]; Acceleration 40° C./75% RH): No change
- Result on day 7 (XRPD) ([2]; High humidity 25° C./92.5% RH): No change
- Result on day 15 (XRPD) ([2]; High humidity 25° C./92.5% RH): No change
- Result on day 7 (XRPD) ([2]; High temperature 60° C.): No change
- Result on day 15 (XRPD) ([2]; High temperature 60° C.): No change
- Result on day 7 (XRPD) ([2]; Illumination 25° C./4500 Lux): No change
- Result on day 15 (XRPD) ([2]; Illumination 25° C./4500 Lux): No change
- Solubility 0.5 h ([3]; FaSSGF pH 1.6, 37° C.): 2.5 µg/mL (≈ 9.83 µM)
- Solubility 2 h ([3]; FaSSGF pH 1.6, 37° C.): 2.2 µg/mL (≈ 8.65 µM)
- Solubility 24 h ([3]; FaSSGF pH 1.6, 37° C.): 2.4 µg/mL (≈ 9.44 µM)
- Residual solid XRPD [3, 5]: Crystal form C
- Final pH [3, 6]: 1.6
- Solubility 0.5 h ([3]; FaSSIF pH 6.5, 37° C.): 9.0 µg/mL (≈ 35.4 µM)
- Solubility 2 h ([3]; FaSSIF pH 6.5, 37° C.): 10.2 µg/mL (≈ 40.1 µM)
- Solubility 24 h ([3]; FaSSIF pH 6.5, 37° C.): 9.8 µg/mL (≈ 38.5 µM)
- Residual solid XRPD [3, 7]: Crystal form C
- Final pH [3, 8]: 6.5
- Solubility 0.5 h ([3]; FeSSIF pH 5.0, 37° C.): 33.5 µg/mL (≈ 132 µM)
- Solubility 2 h ([3]; FeSSIF pH 5.0, 37° C.): 33.9 µg/mL (≈ 133 µM)
- Solubility 24 h ([3]; FeSSIF pH 5.0, 37° C.): 33.2 µg/mL (≈ 131 µM)
- Residual solid XRPD [3, 9]: Crystal form C
- Final pH [3, 10]: 5.0
- Solubility 0.5 h ([3]; Water, 37° C.): 2.6 µg/mL (≈ 10.2 µM)
- Solubility 2 h ([3]; Water, 37° C.): 3.1 µg/mL (≈ 12.2 µM)
- Solubility 24 h ([3]; Water, 37° C.): 3.3 µg/mL (≈ 13 µM)
- Residual solid XRPD [3, 11]: Crystal form C
- Final pH ([3]; Water, supernatant at 24 h): 5.5
Structure (SMILES): O=c1cc(-c2ccccc2)oc2c(O)c(O)ccc12 [Crystal form C, 7,8-dihydroxyflavone]
- crystal form stability (general statement) [2]: stable and does not suffer from crystal transformation

- weight gain in the dynamic vapor sorption plot [1]: less than 0.1%
- Result on day 7 (XRPD) ([2]; High temperature 60° C.): No change
- Result on day 15 (XRPD) ([2]; High temperature 60° C.): No change
- Solubility 0.5 h ([3]; FaSSGF pH 1.6, 37° C.): 13.6 µg/mL (≈ 53.5 µM)
- Solubility 2 h ([3]; FaSSGF pH 1.6, 37° C.): 18.7 µg/mL (≈ 73.6 µM)
- Solubility 24 h ([3]; FaSSGF pH 1.6, 37° C.): 16.1 µg/mL (≈ 63.3 µM)
- Residual solid XRPD [3, 5]: Crystal form N
- Final pH [3, 6]: 1.6
- Solubility 0.5 h ([3]; FaSSIF pH 6.5, 37° C.): 35.8 µg/mL (≈ 141 µM)
- Solubility 2 h ([3]; FaSSIF pH 6.5, 37° C.): 38.7 µg/mL (≈ 152 µM)
- Solubility 24 h ([3]; FaSSIF pH 6.5, 37° C.): 36.5 µg/mL (≈ 144 µM)
- Residual solid XRPD [3, 7]: Crystal form N
- Final pH [3, 8]: 6.4
- Solubility 0.5 h ([3]; FeSSIF pH 5.0, 37° C.): 111.9 µg/mL (≈ 440 µM)
- Solubility 2 h ([3]; FeSSIF pH 5.0, 37° C.): 114.2 µg/mL (≈ 449 µM)
- Solubility 24 h ([3]; FeSSIF pH 5.0, 37° C.): 107.6 µg/mL (≈ 423 µM)
- Residual solid XRPD [3, 9]: Crystal form N
- Final pH [3, 10]: 5.0
- Solubility 0.5 h ([3]; Water, 37° C.): 15.1 µg/mL (≈ 59.4 µM)
- Solubility 2 h ([3]; Water, 37° C.): 11.8 µg/mL (≈ 46.4 µM)
- Solubility 24 h ([3]; Water, 37° C.): 3.1 µg/mL (≈ 12.2 µM)
- Residual solid XRPD [3, 11]: Crystal form C
- Final pH ([3]; Water, supernatant at 24 h): 5.2
Structure (SMILES): O=c1cc(-c2ccccc2)oc2c(O)c(O)ccc12 [Crystal form N, 7,8-dihydroxyflavone]
- crystal form stability (general statement) [2]: stable and does not suffer from crystal transformation

- crystal form conversion ([4]; at room temperature): tend to convert to the crystal form C
Structure (SMILES): O=c1cc(-c2ccccc2)oc2c(O)c(O)ccc12 [crystal form B, 7,8-dihydroxyflavone]
- crystal form conversion ([4]; at 180° C.): convert to mixed crystals containing the crystal form F and the crystal form J
- crystal form conversion ([4]; heated to 110° C.): some characteristic peaks of the crystal form J will appear

- crystal form conversion ([4]; at room temperature): convert to the crystal form N
Structure (SMILES): O=c1cc(-c2ccccc2)oc2c(O)c(O)ccc12 [crystal form E, 7,8-dihydroxyflavone]

- crystal form conversion ([4]; at room temperature): convert to the crystal form B
Structure (SMILES): O=c1cc(-c2ccccc2)oc2c(O)c(O)ccc12 [crystal form F, 7,8-dihydroxyflavone]
- crystal form conversion ([4]; heated to 220° C.): convert to mixed crystals of the crystal form J and the crystal form P

- crystal form conversion ([4]; at room temperature): convert to other crystal forms
Structure (SMILES): O=c1cc(-c2ccccc2)oc2c(O)c(O)ccc12 [crystal form H, 7,8-dihydroxyflavone]

- crystal form conversion ([4]; at room temperature): convert to the crystal form C
Structure (SMILES): O=c1cc(-c2ccccc2)oc2c(O)c(O)ccc12 [crystal form S, 7,8-dihydroxyflavone]
